Experimental data published in paper PMC3739731, “Pharmacological Inhibition of polysialyltransferase ST8SiaII Modulates Tumour Cell Migration” (PLoS ONE, 2013).

What was measured:
ST8SiaII [1] = molecular target: T1, ST8SiaII (Homo sapiens, UniProt Q92186); experiment: HPLC assay of DMB-DP3 polysialylation with recombinant human ST8SiaII, Dixon plot; format: biochemical
T1 construct: gene ST8SIA2
T1 sequence (Q92186 1-375): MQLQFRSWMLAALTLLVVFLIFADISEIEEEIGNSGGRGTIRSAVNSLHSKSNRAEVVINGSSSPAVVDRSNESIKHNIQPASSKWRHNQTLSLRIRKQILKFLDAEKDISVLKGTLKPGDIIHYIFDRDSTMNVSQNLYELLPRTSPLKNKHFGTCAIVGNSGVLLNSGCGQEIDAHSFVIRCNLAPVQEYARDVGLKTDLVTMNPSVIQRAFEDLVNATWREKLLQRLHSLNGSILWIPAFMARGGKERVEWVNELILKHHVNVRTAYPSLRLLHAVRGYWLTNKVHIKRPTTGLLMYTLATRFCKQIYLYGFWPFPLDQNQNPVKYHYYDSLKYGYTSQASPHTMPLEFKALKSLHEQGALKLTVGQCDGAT

ST8SiaII [2] = molecular target: T1, ST8SiaII; experiment: HPLC-fluorescence enzyme kinetics, Lineweaver-Burk (Km); format: biochemical

Row | Ki (ST8SiaII [1]) [µM] | Km (ST8SiaII [2]) [µM] | Molecule
1 | 10 | – | Nc1ccn([C@@H]2O[C@H](COP(=O)(O)O)[C@@H](O)[C@H]2O)c(=O)n1 [CMP]
2 | – | 38.9 | DMB-DP3
